This note sets out measurements from patent US8765741B2, “5,6-dihydro-1H-pyridin-2-one compounds” (Anadys Pharmaceuticals, Inc., priority 2007, dated 2014).

Structures are written as SMILES.

For the first test, the target named is NS5B polymerase (Hepatitis C virus genotype 1b, UniProt P26663). Description: biochemical.
NS5B polymerase, sequence (P26663 2420-3010): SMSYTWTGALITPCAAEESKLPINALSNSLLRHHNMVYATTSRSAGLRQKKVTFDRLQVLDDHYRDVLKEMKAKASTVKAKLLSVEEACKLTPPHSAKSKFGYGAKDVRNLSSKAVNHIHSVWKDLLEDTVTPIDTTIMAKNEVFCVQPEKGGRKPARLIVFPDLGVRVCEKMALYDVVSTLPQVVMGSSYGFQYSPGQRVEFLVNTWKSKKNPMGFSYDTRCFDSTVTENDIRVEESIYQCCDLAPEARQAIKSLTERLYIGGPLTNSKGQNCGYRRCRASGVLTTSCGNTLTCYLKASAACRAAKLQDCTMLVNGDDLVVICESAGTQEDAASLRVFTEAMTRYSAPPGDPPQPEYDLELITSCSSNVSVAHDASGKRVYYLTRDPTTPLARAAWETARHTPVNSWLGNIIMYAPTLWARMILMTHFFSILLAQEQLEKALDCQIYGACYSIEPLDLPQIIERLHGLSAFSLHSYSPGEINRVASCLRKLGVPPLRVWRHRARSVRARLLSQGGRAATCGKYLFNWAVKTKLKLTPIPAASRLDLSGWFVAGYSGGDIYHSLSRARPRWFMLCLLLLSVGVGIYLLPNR
Settings: not given
As to the method:
Compounds were tested for HCV polymerase inhibition. Assays were performed in a 96-well streptavidin-coated FlashPlate using 20 nM enzyme, 0.5 μCi of [α-^33P]GTP, 0.6 μM GTP, and 250 nM 5′biotinylated oligo (rG13)/poly rC in 20 mM Tris-HCl, pH 7.5, 5 mM MgCl2, 5 mM dithiothreitol, 0.1 g/L bovine serum albumin, and 100 U/mL RNAse inhibitor. The reaction was stopped by aspiration after 75 min at 28° C. and the plate was washed several times. After washing and drying the plate, incorporated radioactivity was counted using a Microbeta scintillation counter. IC50 values were calculated relative to the uninhibited control and inhibition data were fitted to a 4-parameter IC50 equation.
Broadly, the IC50 is the concentration needed to halve the response being measured. Regarding `CS(=O)(=O)Nc1ccc2c(c1)S(=O)(=O)N=C(C1=C(O)[C@@H]3[C@@H]4CC[C@@H](C4)[C@@H]3N(Cc3ccc(F)cc3)C1=O)N2` [Example 4, N-{3-[(1S,2S,7R,8R)-3-(4-Fluoro-benzyl)-6-hydroxy-4-oxo-3-aza-tricyclo[6.2.1.0^2,7]undec-5-en-5-yl]-1,1-dioxo-1,4-dihydro-1λ^6-benzo[1,2,4]thiadiazin-7-yl}-methanesulfonamide], the IC50 is under 20 nM. Same read-out and setting: with `CS(=O)(=O)Nc1ccc2c(c1)S(=O)(=O)N=C(C1=C(O)[C@H]3[C@H]4CC[C@H](C4)[C@H]3N(Cc3ccc(F)cc3)C1=O)N2` [Example 5, N-{3-[(1R,2R,7S,8S)-3-(4-Fluoro-benzyl)-6-hydroxy-4-oxo-3-aza-tricyclo[6.2.1.0^2,7]undec-5-en-5-yl]-1,1-dioxo-1,4-dihydro-1λ^6-benzo[1,2,4]thiadiazin-7-yl}-methanesulfonamide] the figure was 100 to 1000 nM; with `CS(=O)(=O)Nc1ccc2c(c1)S(=O)(=O)N=C(C1=C(O)[C@@H]3[C@H]4CC[C@H](C4)[C@@H]3N(Cc3ccc(F)cc3)C1=O)N2` [Example 6, N-{3-[(1R,2S,7R,8S)-3-(4-Fluoro-benzyl)-6-hydroxy-4-oxo-3-aza-tricyclo[6.2.1.0^2,7]undec-5-en-5-yl]-1,1-dioxo-1,4-dihydro-1λ^6-benzo[1,2,4]thiadiazin-7-yl}-methanesulfonamide], under 20 nM; with `CS(=O)(=O)Nc1ccc2c(c1)S(=O)(=O)N=C(C1=C(O)[C@H]3[C@@H]4CC[C@@H](C4)[C@H]3N(Cc3ccc(F)cc3)C1=O)N2` [Example 7, N-{3-[(1S,2R,7S,8R)-3-(4-Fluoro-benzyl)-6-hydroxy-4-oxo-3-aza-tricyclo[6.2.1.0^2,7]undec-5-en-5-yl]-1,1-dioxo-1,4-dihydro-1λ^6-benzo[1,2,4]thiadiazin-7-yl}-methanesulfonamide], 100 to 1000 nM.

The test is the same for the next values; noted with them: NS5B polymerase inhibition; 20 nM enzyme, 75 min at 28° C.; read-out: IC50.
For the compound `CS(=O)(=O)Nc1ccc2c(c1)S(=O)(=O)N=C(C1=C(O)C3C4CCC(O4)C3N(C3CCCC3)C1=O)N2` (racemic) [Example 48, (rac-di-exo)-N-[3-(3-Cyclopentyl-6-hydroxy-4-oxo-11-oxa-3-aza-tricyclo[6.2.1.0^2,7]undec-5-en-5-yl)-1,1-dioxo-1,4-dihydro-1λ^6-benzo[1,2,4]thiadiazin-7-yl]-methanesulfonamide], the IC50 fell in the range of 20 to 100 nM.

As to `CS(=O)(=O)Nc1ccc2c(c1)S(=O)(=O)N=C(C1=C(O)[C@H]3[C@H]4CC[C@H]([C@@H]5C[C@@H]54)[C@H]3N(Cc3ccc(F)cc3)C1=O)N2` (racemic) [Example 51, rac-N-{3-[(1R,2R,7S,8S,9S,11R)-3-[(4-Fluorophenyl)methyl]-6-hydroxy-4-oxo-3-azatetracyclo[6.3.2.0^2,7.0^9,11]tridec-5-en-5-yl]-1,1-dioxo-4H-1λ^6,2,4-benzothiadiazin-7-yl}methanesulfonamide], the IC50 is 20 to 100 nM.

As for `CS(=O)(=O)Nc1ccc2c(c1)S(=O)(=O)N=C(C1=C(O)C3C4CCC(C5CC54)C3N(Cc3ccc(F)cc3)C1=O)N2` (racemic) [Example 52], the IC50 lay within 20 to 100 nM. On to `CC(C)CCN1C(=O)C(C2=NS(=O)(=O)c3cc(N(C)S(C)(=O)=O)ccc3N2)=C(O)C2C3CCC(O3)C21` (racemic) [Example 59, (rac-di-exo)-N-{3-[6-Hydroxy-3-(3-methyl-butyl)-4-oxo-11-oxa-3-aza-tricyclo[6.2.1.0^2,7]undec-5-en-5-yl]-1,1-dioxo-1,4-dihydro-1λ^6-benzo[1,2,4]thiadiazin-7-yl}-N-methyl-methanesulfonamide], for which the concentration for half-maximal inhibition (IC50) lay within 100 to 1000 nM.

`CS(=O)(=O)Nc1ccc2c(c1)S(=O)(=O)N=C(C1=C(O)C3C(C4CC(O)[C@H]3C4)N(Cc3ccc(F)cc3)C1=O)N2` (stereo in doubt) [Example 67, N-{3-[(1R,2S,7R,8S)-3-(4-Fluoro-benzyl)-6,9-dihydroxy-4-oxo-3-aza-tricyclo[6.2.1.0^2,7]undec-5-en-5-yl]-1,1-dioxo-1,4-dihydro-1λ^6-benzo[1,2,4]thiadiazin-7-yl}-methanesulfonamide]: the IC50 was under 20 nM. Still for that read-out and setting: with `Cc1cc(CN2C(=O)C(C3=NS(=O)(=O)c4cc(NS(C)(=O)=O)ccc4N3)=C(O)[C@H]3[C@@H]2[C@@H]2CC[C@H]3O2)ccc1F` [Example 11, N-{3-[(1S,2R,7S,8R)-3-(4-Fluoro-3-methyl-benzyl)-6-hydroxy-4-oxo-11-oxa-3-aza-tricyclo[6.2.1.0^2,7]undec-5-en-5-yl]-1,1-dioxo-1,4-dihydro-1λ^6-benzo[1,2,4]thiadiazin-7-yl}-methanesulfonamide] the figure was under 20 nM; with `CS(=O)(=O)Nc1ccc2c(c1)S(=O)(=O)N=C(C1=C(O)[C@H]3[C@H]([C@@H]4CC[C@H]3O4)N(Cc3ccc(F)cc3)C1=O)N2` [Example 14, N-{3-[(1S,2R,7S,8R)-3-(4-Fluoro-benzyl)-6-hydroxy-4-oxo-11-oxa-3-aza-tricyclo[6.2.1.0^2,7]undec-5-en-5-yl]-1,1-dioxo-1,4-dihydro-1λ^6-benzo[1,2,4]thiadiazin-7-yl}-methanesulfonamide], under 20 nM.

For `CS(=O)(=O)Nc1ccc2c(c1)S(=O)(=O)N=C(C1=C(O)[C@@H]3[C@H]4CC[C@H](C4)[C@@H]3N(Cc3ccc(F)c(F)c3)C1=O)N2` [Example 16, N-{3-[(1R,2S,7R,8S)-3-(3,4-Difluoro-benzyl)-6-hydroxy-4-oxo-3-aza-tricyclo[6.2.1.0^2,7]undec-5-en-5-yl]-1,1-dioxo-1,4-dihydro-1λ^6-benzo[1,2,4]thiadiazin-7-yl}-methanesulfonamide], the IC50 was under 20 nM. Still for that read-out and setting: the same measure for `CN(c1ccc2c(c1)S(=O)(=O)N=C(C1=C(O)[C@@H]3[C@H]4CC[C@H](C4)[C@@H]3N(Cc3ccc(F)c(F)c3)C1=O)N2)S(C)(=O)=O` [Example 17, N-{3-[(1R,2S,7R,8S)-3-(3,4-Difluoro-benzyl)-6-hydroxy-4-oxo-3-aza-tricyclo[6.2.1.0^2,7]undec-5-en-5-yl]-1,1-dioxo-1,4-dihydro-1λ^6-benzo[1,2,4]thiadiazin-7-yl}-N-methyl-methanesulfonamide]: 20 to 100 nM; for `Cc1cc(CN2C(=O)C(C3=NS(=O)(=O)c4cc(N(C)S(C)(=O)=O)ccc4N3)=C(O)[C@@H]3[C@H]4CC[C@H](C4)[C@@H]32)ccc1F` [Example 18, N-{3-[(1R,2S,7R,8S)-3-(4-Fluoro-3-methyl-benzyl)-6-hydroxy-4-oxo-3-aza-tricyclo[6.2.1.0^2,7]undec-5-en-5-yl]-1,1-dioxo-1,4-dihydro-1λ^6-benzo[1,2,4]thiadiazin-7-yl}-N-methyl-methanesulfonamide]: 20 to 100 nM; for `O=C1C(C2=NS(=O)(=O)c3cc(I)ccc3N2)=C(O)[C@@H]2[C@H]3CC[C@H](C3)[C@@H]2N1Cc1ccc(F)cc1` [Example 19, (1R,2S,7R,8S)-3-(4-Fluoro-benzyl)-6-hydroxy-5-(7-iodo-1,1-dioxo-1,4-dihydro-1λ^6-benzo[1,2,4]thiadiazin-3-yl)-3-aza-tricyclo[6.2.1.0^2,7]undec-5-en-4-one]: 1000 to 100000 nM.

For the compound `O=C1C(C2=NS(=O)(=O)c3cc(C4=CCCS4(=O)=O)ccc3N2)=C(O)[C@@H]2[C@H]3CC[C@H](C3)[C@@H]2N1Cc1ccc(F)cc1` [Example 20, (1R,2S,7R,8S)-5-[7-(1,1-Dioxo-4,5-dihydro-1H-1λ^6-thiophen-2-yl)-1,1-dioxo-1,4-dihydro-1λ^6-benzo[1,2,4]thiadiazin-3-yl]-3-(4-fluoro-benzyl)-6-hydroxy-3-aza-tricyclo[6.2.1.0^2,7]undec-5-en-4-one], the IC50 lay within 100 to 1000 nM.
